Experiments:
[1] = system: atopic dermatitis induced by capsaicin (2 W Cap); assay: 2 W Cap model of atopic dermatitis induced by capsaicin; assay type: in vivo, Sprague Dawley rats; settings: 10 μM applied daily on back and ears
Text: As such, to confirm whether the peptide according to an embodiment of the present invention can actually treat immune-related diseases by activating immunological functions in vivo, the present inventors examined whether the symptoms of atopic dermatitis can be ameliorated by treating the peptide on the animal model of atopic dermatitis. Specifically, to confirm whether the peptide has the effect of ameliorating dermatitis in a model of atopic dermatitis induced by capsaicin, the present inventors observed the degree of skin improvement after treating the peptide (NCP112) according to an embodiment of the present invention on the animals with atopy (Neo-Cap and 2 W Cap) in the dermis of atopy-induced skin tissue, the applied site in the dermis, and the site with scratches. Neo-Cap, which is a representative model of atopic dermatitis, was subcutaneously injected with capsaicin (50 mg/kg) on the back skin of neonatal rats (Sprague Dawley rats) of less than 48 hours to induce atopic dermatitis. 2 W Cap, which is a model mimicking of atopic dermatitis developed in adolescent period or adults, was subcutaneously injected twice with capsaicin (25 mg/kg) of 2-week-old rats (Sprague Dawley) to induce atopic dermatitis.
In 2 W-Cap model, the dermatitis score was measured one week after the capsaicin injection, and the control group (PBS) and NCP112 were applied daily on the back (200 μL) and both ears (50 μL) at a concentration of 10 μM, and the dermatitis score was measured at one-week intervals for two weeks, in the same manner as in Neo-Cap model.
The mice analyzed in Experimental Example 3-1 were treated with the peptide according to an embodiment of the present invention, and after five weeks, the mice were sacrificed. The skin tissue at the site where dermatitis was induced by capsaicin treatment was removed in a size of about 3 cm×3 cm and the tissue was fixed in a 4% paraformaldehyde solution for two to three days. […]

[2] = system: Pseudomonas aeruginosa; assay: antibacterial test in nutrient broth (absorbance at 600 nm); assay type: cell-based
Method: (§1) In order to further improve the antibacterial activity of the peptides prepared in Example 2, an antibacterial test was performed. Gram-positive bacteria Staphylococcus epidermidis and Staphylococcus aureus) and gram-negative bacteria (Pseudomonas aeruginosa and E. coli) were prepared, streaked on agar plate medium using a four-quadrant sequential streak technique, and cultured in a 36° C. incubator overnight. On the next day, the strain colonies on the agar plate medium were inoculated into nutrient broth (3 mL) and cultured overnight at 36° C. and 220 rpm in a shaking incubator. On the next day, the bacteria culture was diluted and the absorbance at 600 nm was measured and adjusted to 0.5. Then, the bacteria culture was diluted in nutrient broth in a 1:100 ratio. Then, the peptides prepared in Example 2 were sequentially diluted in nutrient broth at concentrations of 0 μM, 1.25 μM, 2.5 μM, 5 μM, 10 μM, and 20 μM in an amount of 1 mL, respectively, and 1 mL of the diluted bacteria was inoculated, and cultured overnight at 36° C. and 220 rpm in a shaking incubator for 18 hours. Then, the absorbance was measured at 600 nm and the results were analyzed.

[3] = system: Staphylococcus aureus; assay: as above; assay type: cell-based
Method: as §1

[4] = system: Staphylococcus epidermidis; assay: as above; assay type: cell-based
Method: as §1

[5] = system: E. coli; assay: as above; assay type: cell-based, Escherichia coli
Method: as §1

[6] = target: T1, FPR2 (Homo sapiens, UniProt P25090); assay: intracellular calcium ions (Fura-2/AM) in RBL cells overexpressing FPR2; assay type: cell-based
T1 construct: expressed in transfected cells; host or cells: RBL cells overexpressing FPR2 (FPR2-RBL)
T1 sequence (P25090 1-351): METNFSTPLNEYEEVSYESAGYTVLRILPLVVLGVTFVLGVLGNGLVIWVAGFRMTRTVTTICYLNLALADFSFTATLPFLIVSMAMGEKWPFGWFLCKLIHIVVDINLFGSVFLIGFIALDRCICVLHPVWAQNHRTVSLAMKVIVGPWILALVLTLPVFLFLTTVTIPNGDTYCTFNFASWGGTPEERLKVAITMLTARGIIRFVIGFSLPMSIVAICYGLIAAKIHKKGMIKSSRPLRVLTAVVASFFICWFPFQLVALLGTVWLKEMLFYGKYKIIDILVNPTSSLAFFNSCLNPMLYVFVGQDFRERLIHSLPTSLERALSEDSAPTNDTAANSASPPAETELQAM
Text: To examine whether the peptide according to an embodiment of the present invention activates the in vivo immunological function of a living organism, the present inventors observed the changes in calcium ion permeability. Specifically, they measured the concentration of intracellular calcium ions to examine whether the peptide activates FPR2. To this end, the present inventors used RBL cells in which FPR2 was not expressed, RBL cells in which FPR1 was overexpressed (FPR1-RBL), and RBL cells in which FPR2 was overexpressed, and used Fura-2/AM, a staining material having a strong binding affinity for calcium, as a method for sensitive measurement of the release of intracellular calcium ions. […] Approximately 2×10^6 cells were taken each time and harvested by rapid centrifugation, and resuspended in 1 mL of Locke solution in which EGTA was added but no calcium ions were added, and the absorbance ratios at two wavelengths of 340 nm and 380 nm were monitored on a spectrophotometer. After treating with the peptide of the present invention at different concentrations (1 μM, 0.1 μM, and 0.01 μM) at intervals of about 1 minute, the difference in absorbance at two wavelengths of 340 nm and 380 nm was examined and this was later converted to the concentration of calcium ions freed into the cells according to the method of Grynkiewicz.

[7] = antibacterial activity of N-terminally lipid-modified peptides; assay type: cell-based; settings: compared with peptides carrying other lipid groups (palmitoyl etc.) at the N-terminus
Text: In order to further improve the antibacterial activity of the peptides that underwent the basic screening in Example 1, the present inventors have examined the antibacterial activity of these peptides by synthesizing modified peptides in which various lipid components, such as a palmitoyl group, an octanoyl group, etc., were attached to the N-terminus of these peptides.

[8] = system: atopic dermatitis induced by capsaicin (Neo-Cap); assay: Neo-Cap model of atopic dermatitis induced by capsaicin; assay type: in vivo, Sprague Dawley rats; settings: 10 μM applied daily on back and ears
Method: As such, to confirm whether the peptide according to an embodiment of the present invention can actually treat immune-related diseases by activating immunological functions in vivo, the present inventors examined whether the symptoms of atopic dermatitis can be ameliorated by treating the peptide on the animal model of atopic dermatitis. […]
In Neo-Cap model, the dermatitis score was measured two weeks after the injection of capsaicin, and the control group (PBS) and NCP112 were applied daily on the back (200 μL) and both ears (50 μL) at a concentration of 10 μM, and the dermatitis score was measured at one-week intervals for three weeks. The dermatitis score was measured on the face, ears, back (total) and ears, and back (application site) according to skin conditions, and the score was standardized by setting the score at the second week (i.e., the starting point) at 1, as shown in FIG. 4.
The mice analyzed in Experimental Example 3-1 were treated with the peptide according to an embodiment of the present invention, and after five weeks, the mice were sacrificed. […]

[9] = versus control (PBS), week 5, FIG. 6
[10] = 10 μM peptide, 18 hours, 36° C., absorbance 600 nm

Oct-KFKWRYm [NCP112]
skin conditions [1]: comparable to that of the normal conditions | symptom of atopic dermatitis [1]: effect of ameliorating the symptom of atopic dermatitis | epidermal layer (thickness, H&E stained skin tissue) [1, 9]: significant decrease | antibacterial activity ([2]; 0 to 20 μM peptide, FIG. 1): concentration-dependent manner | growth of bacteria [2, 10]: completely inhibited the growth | antibacterial effect compared among the 4 kinds of bacteria ([2]; FIG. 1): highest antibacterial effect | antibacterial activity ([3]; 0 to 20 μM peptide, FIG. 1): concentration-dependent manner | growth of bacteria [3, 10]: completely inhibited the growth | antibacterial activity ([4]; 0 to 20 μM peptide, FIG. 1): concentration-dependent manner | growth of bacteria [4, 10]: completely inhibited the growth | antibacterial activity ([5]; 0 to 20 μM peptide, FIG. 1): concentration-dependent manner | growth of bacteria [5, 10]: completely inhibited the growth | amount of intracellular concentration increase of calcium ions ([6]; 1 μM, 0.1 μM and 0.01 μM peptide, FPR2-RBL cells, FIG. 2B): concentration-dependent feature | intracellular calcium ions ([6]; FPR2-RBL versus RBL and FPR1-RBL cells, FIG. 2A): rapidly increased specifically in FPR2-RBL cells | antibacterial activity among modified peptides [7]: highest activity | symptom of atopic dermatitis [8]: effect of ameliorating the symptom of atopic dermatitis | epidermal layer (thickness, H&E stained skin tissue) [8, 9]: slight decrease

Source: US10421781B2, “Antimicrobial peptide and use thereof” (NOVACELL TECHNOLOGY INC., priority 2015, dated 2019)
